According to patent publication US7696246B2 (Ligand Pharmaceuticals Incorporated, priority 1999, dated 2010):
Like-named read-outs stand apart in the source and are kept apart here.

Key:
[1] = target: T1, PR (Homo sapiens, UniProt P06401); assay: Co-transfection assay, PR antagonist activity (CV-1 cells, in presence of progesterone); assay type: cell-based; set-up: expressed in transfected cells; host or cells: CV-1 cells; conditions: for PR Antagonist CV-1 Cells Efficacy (%): percent maximal inhibition, progesterone at its EC50
T1 sequence (P06401 1-933): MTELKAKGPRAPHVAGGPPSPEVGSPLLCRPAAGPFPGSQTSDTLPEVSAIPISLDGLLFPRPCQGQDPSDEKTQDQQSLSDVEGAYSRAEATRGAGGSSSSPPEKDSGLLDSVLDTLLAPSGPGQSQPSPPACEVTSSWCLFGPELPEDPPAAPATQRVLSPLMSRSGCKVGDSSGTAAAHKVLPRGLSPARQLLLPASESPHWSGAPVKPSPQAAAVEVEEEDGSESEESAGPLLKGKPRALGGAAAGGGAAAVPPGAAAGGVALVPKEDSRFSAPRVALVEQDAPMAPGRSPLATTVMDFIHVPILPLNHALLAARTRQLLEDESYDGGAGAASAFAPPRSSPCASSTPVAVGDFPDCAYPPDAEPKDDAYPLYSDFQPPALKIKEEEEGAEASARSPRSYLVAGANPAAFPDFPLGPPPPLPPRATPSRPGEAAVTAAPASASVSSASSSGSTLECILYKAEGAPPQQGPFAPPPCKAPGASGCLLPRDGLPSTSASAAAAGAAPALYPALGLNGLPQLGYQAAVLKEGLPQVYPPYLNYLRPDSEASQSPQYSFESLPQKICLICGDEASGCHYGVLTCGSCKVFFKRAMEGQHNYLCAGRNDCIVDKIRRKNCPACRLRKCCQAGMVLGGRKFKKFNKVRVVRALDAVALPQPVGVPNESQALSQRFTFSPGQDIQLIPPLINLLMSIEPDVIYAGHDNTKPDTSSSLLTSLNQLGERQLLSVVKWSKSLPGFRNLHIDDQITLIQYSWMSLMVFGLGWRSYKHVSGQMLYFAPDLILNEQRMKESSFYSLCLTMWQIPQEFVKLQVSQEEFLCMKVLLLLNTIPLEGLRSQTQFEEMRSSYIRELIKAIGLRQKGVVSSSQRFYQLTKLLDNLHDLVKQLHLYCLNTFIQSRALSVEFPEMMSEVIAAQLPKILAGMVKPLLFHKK

[2] = target: T1, PR; assay: PR competitive binding assay; conditions: Cheng-Prusoff
Protocol: (§1) After correcting for non-specific binding, IC50 values were determined. […] The IC50 value was determined graphically from a log-logit plot of the data. The Ki values were determined by application of the Cheng-Prusoff equivuation to the IC50 values, the labeled ligand concentration and the Kd of the labeled ligand.

[3] = target: T1, PR; assay: Co-transfection assay, PR agonist activity (CV-1 cells); assay type: cell-based; set-up: expressed in transfected cells; host or cells: CV-1 cells; conditions: for EC50: agonist potency EC50; for PR Agonist CV-1 Cells Efficacy (%): percent maximal response relative to reference agonist progesterone
[4] = target: T2, human AR (Homo sapiens, UniProt P10275); assay: Co-transfection assay, AR agonist activity (CV-1 cells, MTV-LUC reporter); assay type: cell-based; conditions: CV-1 cells; for EC50: agonist potency EC50; for AR Agonist CV-1 Cells Efficacy (%): percent maximal response relative to reference agonist DHT
T2 sequence (P10275 1-920): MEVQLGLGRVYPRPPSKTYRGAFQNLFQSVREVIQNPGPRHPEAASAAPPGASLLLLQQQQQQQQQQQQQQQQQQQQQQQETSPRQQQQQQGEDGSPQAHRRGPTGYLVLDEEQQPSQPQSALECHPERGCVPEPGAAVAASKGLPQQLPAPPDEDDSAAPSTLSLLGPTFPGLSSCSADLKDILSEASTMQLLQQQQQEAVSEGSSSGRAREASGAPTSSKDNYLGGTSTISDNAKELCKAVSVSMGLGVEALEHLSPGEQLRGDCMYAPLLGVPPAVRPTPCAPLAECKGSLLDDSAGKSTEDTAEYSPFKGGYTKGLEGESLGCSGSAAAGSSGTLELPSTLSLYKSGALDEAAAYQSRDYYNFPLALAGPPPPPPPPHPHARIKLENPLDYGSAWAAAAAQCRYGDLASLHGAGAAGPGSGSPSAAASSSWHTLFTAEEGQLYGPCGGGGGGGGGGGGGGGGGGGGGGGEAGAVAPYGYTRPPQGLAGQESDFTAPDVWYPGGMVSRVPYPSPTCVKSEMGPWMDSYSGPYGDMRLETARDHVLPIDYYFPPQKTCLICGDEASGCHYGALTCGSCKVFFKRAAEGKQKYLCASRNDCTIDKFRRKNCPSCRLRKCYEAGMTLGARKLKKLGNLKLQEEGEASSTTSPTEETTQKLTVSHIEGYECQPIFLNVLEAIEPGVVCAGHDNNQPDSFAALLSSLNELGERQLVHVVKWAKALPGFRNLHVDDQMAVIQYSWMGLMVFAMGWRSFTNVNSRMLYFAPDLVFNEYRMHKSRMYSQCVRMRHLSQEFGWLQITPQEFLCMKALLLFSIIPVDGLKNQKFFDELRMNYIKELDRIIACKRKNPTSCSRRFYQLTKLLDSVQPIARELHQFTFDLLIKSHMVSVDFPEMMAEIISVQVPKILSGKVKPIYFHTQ

[5] = target: T2, human AR; assay: AR whole cell competitive binding assay (COS-1 cells, 3H-DHT); conditions: 1 nM 3H-DHT, Cheng-Prusoff
Protocol: AR Binding: For the whole cell binding assay, COS-1 cells in 96-well microtiter plates containing DMEM-10% FBS were transfected as described above with the following plasmid DNA: pRShAR (2 ng/well), pRS-β-Gal (50 ng/well) and pGEM (48 ngcwell). Six hours after transfection, media was removed, the cells were washed with PBS and fresh media was added. The next day, the media was changed to DMEM-serum free to remove any endogenous ligand that might be complexed with the receptor in the cells.
Three replicates were used for each sample. […] The remaining media was removed, the cells were washed three times with PBS to remove unbound ligand, and cells were lysed with a Triton X-100-based buffer.
For the saturation analyses, the difference between the total binding and the nonspecific binding, normalized by the β-Gal rate, was defined as specific binding. […] The Ki values were determined by application of the Cheng-Prusoff equation to the IC50 values, where:
as §1

[6] = target: T2, human AR; assay: Co-transfection assay, AR antagonist activity (CV-1 cells, in presence of DHT); assay type: cell-based; conditions: for AR Antagonist CV-1 Cells Efficacy (%): percent maximal inhibition, DHT at its EC50; for IC50: read-out: AR Antagonist CV-1 Cells Potency
[7] = read-out: PR Antagonist CV-1 Cells Potency

| SMILES | PR Antagonist CV-1 Cells Efficacy (%) [1] | IC50 [1, 7] [nM] | Ki [2] [nM] | EC50 [3] [nM] | PR Agonist CV-1 Cells Efficacy (%) [3] | EC50 [4] [nM] | Ki [5] [nM] | AR Antagonist CV-1 Cells Efficacy (%) [6] | IC50 [6] [nM] | IC50 [1] [nM] | AR Agonist CV-1 Cells Efficacy (%) [4] [%] |
| --- | --- | --- | --- | --- | --- | --- | --- | --- | --- | --- | --- |
| CC1(C)OC(=S)Nc2ccc(C3=CC(O)CCC3)cc21 (racemic) [Compound 697, (±)-6-(3-Hydroxy-1-)cyclohexenyl-1,4-dihydro-4,4-dimethyl-1,3-benzo[d]oxazin-2-thione] | 58% | 316 | > 1000 | > 10000 | na (na = not active (i.e. efficacy of <20 and potency of >10,000)) | – | – | – | – | – | – |
| CC1(C)OC(=S)Nc2ccc(C3=CC(=O)CCC3)cc21 [Compound 695, 6-(3-Oxo-1-)cyclohexenyl-1,4-dihydro-4,4-dimethyl-1,3-benzo[d]oxazin-2-thione] | 90% | 20 | 203 | > 10000 | na (na = not active (i.e. efficacy of <20 and potency of >10,000)) | – | – | – | – | – | – |
| CC1(C)OC(=O)Nc2ccc(C3=CCCCC3)cc21 [Compound 667, 6-(1-Cyclohexenyl)-1,4-dihydro-4,4-dimethyl-1,3-benzo[d]oxazin-2-one] | 89% | 70 | 144 | > 10000 | na (na = not active (i.e. efficacy of <20 and potency of >10,000)) | > 10000 | 7.4 | 89% | 27 | – | – |
| CC(=O)[C@H]1CC[C@H]2[C@@H]3CCC4=CC(=O)CC[C@]4(C)[C@H]3CC[C@]12C [Prog, progesterone, reference compound] | na (na = not active (i.e. efficacy of <20 and potency of >10,000)) | – | – | – | 100% | – | – | – | – | – | – |
| CCCC(C)N(CCC)c1ccc2[nH]c(=O)cc(C(F)(F)F)c2c1 (racemic) [Compound 251, (±)-6-(N-Propyl-N-1-methylbutyl)amino-4-trifluoromethyl-2(1H)-quinolinone] | 91% | – | 930 | > 10000 | na (na = not active (i.e. efficacy of <20 and potency of >10,000)) | – | – | – | – | 747 | – |
| CC(C)CN(CC(F)(F)F)c1cc2c(C(F)(F)F)cc(=O)[nH]c2cc1O [Compound 473, 6-(N-Isobutyl-N-2,2,2-trifluoroethyl)amino-7-hydroxy-4-trifluoromethyl-2(1H)-quinolinone] | 55% | – | 508 | > 10000 | na (na = not active (i.e. efficacy of <20 and potency of >10,000)) | – | – | – | – | 880 | – |
| FC(F)(F)c1cc(=S)[nH]c2ccc(C3CCCCC3)cc12 [Compound 631, 6-Cyclohexyl-4-trifluoromethyl-2(1H)-thioquinolinone] | 75% | – | 136 | > 10000 | na (na = not active (i.e. efficacy of <20 and potency of >10,000)) | – | – | – | – | 796 | – |
| CN(C)c1ccc([C@H]2C[C@]3(C)[C@@H](CC[C@]3(O)CCCO)[C@@H]3CCC4=CC(=O)CCC4=C32)cc1 [ZK299, reference compound] | 95% | – | – | – | na (na = not active (i.e. efficacy of <20 and potency of >10,000)) | – | – | – | – | – | – |
| CC(=O)c1cccc(-c2ccc3[nH]c(=O)cc(C(F)(F)F)c3c2)c1 [Compound 735, 4-Trifluoromethyl-6-(3-acetylphenyl)-2(1H)-quinolinone] | 84% | – | 915 | > 10000 | na (na = not active (i.e. efficacy of <20 and potency of >10,000)) | – | – | – | – | 326 | – |
| O=c1cc(C(F)(F)F)c2cc(-c3cccc([N+](=O)[O-])c3)ccc2[nH]1 [Compound 727, 4-Trifluoromethyl-6-(3-nitro)phenyl-2(1H)-quinolinone] | 90% | – | 161 | > 10000 | na (na = not active (i.e. efficacy of <20 and potency of >10,000)) | – | – | – | – | 108 | – |
| CC1(C)OC(=O)Nc2ccc(C3CCCCCC3)cc21 [Compound 671, 6-(1-Cycloheptyl)-1,4-dihydro-4,4-dimethyl-1,3-benzo[d]oxazin-2-one] | 62% | 200 | > 1000 | > 10000 | na (na = not active (i.e. efficacy of <20 and potency of >10,000)) | – | – | – | – | – | – |
| N#Cc1cc(F)cc(-c2ccc3[nH]c(=O)cc(C(F)(F)F)c3c2)c1 [Compound 731, 4-Trifluoromethyl-6-(3-fluoro-5-cyano)phenyl-2(1H)-quinolinone] | 89% | – | 154 | > 10000 | na (na = not active (i.e. efficacy of <20 and potency of >10,000)) | – | – | – | – | 64 | – |
| Nc1cc2[nH]c(=O)cc(C(F)(F)F)c2cc1C1CCCCC1 [Compound 582, 7-Amino-6-cyclohexyl-4-trifluoromethyl-2(1H)-quinolinone] | – | – | – | – | – | > 10000 | 43 | 92% | 26 | – | – |
| CC(C)Nc1ccc2c(C(F)(F)F)c(F)c(=O)[nH]c2c1 [Compound 535, 3-Fluoro-7-isopropylamino-4-trifluoromethyl-2(1H)-quinolinone] | – | – | – | – | – | > 10000 | > 1000 | 76% | 60 | – | – |
| O=c1cc(C(F)(F)F)c2cc(N3CCCCC3)ccc2[nH]1 [Compound 311, 6-(1-Piperidinyl)-4-trifluoromethyl-2(1H)-quinolinone] | – | – | – | – | – | 143 | 12 | 38% | 13 | – | 42 |
| O=c1cc(C(F)(F)F)c2cc(C3=CCCC3)ccc2[nH]1 [Compound 632, 6-Cyclopentenyl-4-trifluoromethyl-2(1H)-quinolinone] | – | – | – | – | – | > 10000 | 112 | 75% | 36 | – | – |
| O=c1cc(C(F)(F)F)c2cc(N(CC(Cl)Cl)CC(Cl)Cl)ccc2[nH]1 [Compound 232, 6-(bis-N-2,2-Dichloroethyl)amino-4-trifluoromethyl-2(1H)-quinolinone] | – | – | – | – | – | 3.4 | 7.6 | na (na = not active (i.e. efficacy of <20 and potency of >10,000)) | > 10000 | – | 55 |
